Data taken from article PMC9504029, “Identification and Characterization of Novel Small-Molecule SMOX Inhibitors” (Medical Sciences, 2022).
Where two headings read alike, the source gives them in different places.

Tests used:
SMOX [1] = biological target: T1, SMOX (Homo sapiens, UniProt Q9NWM0); conditions: cited from earlier work
T1 construct: using 0.3 µg/mL of purified SMOX enzyme and 2 mM of spermine substrate

SMOX [2] = biological target: T1, SMOX; assay: SMOX enzyme activity, HRP-luminol chemiluminescence assay; format: biochemical; conditions: 2 mM spermine; for inhibition at 20 µM: 20 µM compound, no pre-incubation, triplicate, read-out: % Inhibition at 20 μM ± SD, SMOX; for IC50: AUC over 60 s, pH 8
Description: As the catabolism of spermine by SMOX results in the stoichiometric production of H2O2, enzyme activity was quantified by chemiluminescence generated by the horseradish peroxidase-catalyzed oxidation of luminol in 96-well plates (Costar #3912; white, flat bottom), as previously described. All assays were performed in 0.083 M glycine buffer at a pH of 8 using 0.3 µg/mL of purified SMOX enzyme and 2 mM of spermine substrate. Phosphate buffer was not used to prevent the formation of polyamine–phosphate complexes. Enzyme reactions were initiated by the addition of SMOX and HRP to all other assay components; inhibitors were not pre-incubated with enzyme. Triplicate determinations were obtained for each measurement by recording the luminescence (AUC) over 60 s. Hit compounds were then confirmed by monitoring the assay over 600 s. Each triplicate assay point contained a 4th control well to monitor and normalize the data with regards to luminescent decay over time. The compounds were initially screened for activity at a concentration of 20 µM. […] The known SMOX inhibitor, MDL-72527, was used as a control. The hit compounds were then characterized by IC50 and kinetic analyses. Percent inhibition values are reported as triplicate mean % SMOX inhibition ± SD compared to the vehicle control. IC50 values were calculated in GraphPad Prism 9.3 software (Graph-Pad, San Diego, California) using a non-linear regression analysis ([Inhibitor] vs. normalized response—variable slope). Data for all enzyme assays were generated using a SpectraMax M5 plate reader (Molecular Devices) equipped with SOFTmax PRO 7.0.3 software.

LSD1 = biological target: T2, LSD1 (Homo sapiens, UniProt O60341); assay: LSD1 selectivity assay (Cayman kit, resorufin fluorescence); format: biochemical; conditions: read-out: % Inhibition at 20 μM ± SD, LSD1
T2 construct: purchased Cayman Chemical #700120

recombinant human MAO-A = biological target: T3, recombinant human MAO-A (Homo sapiens, UniProt P21397); assay: MAO-Glo assay, MAO-A; format: biochemical; conditions: for inhibition at 20 µM: read-out: % Inhibition at 20 μM ± SD, MAO-A
T3 construct: purchased Sigma-Aldrich M7316-1VL
T3 sequence (P21397 1-527): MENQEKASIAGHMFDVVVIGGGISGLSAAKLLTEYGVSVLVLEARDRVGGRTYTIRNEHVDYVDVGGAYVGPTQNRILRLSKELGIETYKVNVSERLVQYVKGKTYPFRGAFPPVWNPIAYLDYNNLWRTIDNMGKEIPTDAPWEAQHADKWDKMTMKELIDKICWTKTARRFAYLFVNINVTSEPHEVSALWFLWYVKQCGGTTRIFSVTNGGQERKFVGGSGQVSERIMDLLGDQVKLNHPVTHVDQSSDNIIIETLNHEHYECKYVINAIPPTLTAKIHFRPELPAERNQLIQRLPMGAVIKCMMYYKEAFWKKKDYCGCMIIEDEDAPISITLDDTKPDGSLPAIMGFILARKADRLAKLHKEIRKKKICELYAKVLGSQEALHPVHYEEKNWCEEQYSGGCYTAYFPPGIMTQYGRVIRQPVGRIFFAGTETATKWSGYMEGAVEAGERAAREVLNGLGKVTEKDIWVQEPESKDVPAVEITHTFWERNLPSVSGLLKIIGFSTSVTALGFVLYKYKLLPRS
Description: (§1) To determine selectivity, the compounds were tested for activity against the related FAD-dependent amine oxidase enzymes LSD1, MAO-A, and MAO-B. LSD1 activity was assessed using a commercially available assay kit (#700120, Cayman Chemical, Ann Arbor, MI, USA), in which the enzyme activity was determined by the horseradish peroxidase-catalyzed oxidation of 10-acetyl-3,7-dihydroxyphenoxazine to the highly fluorescent resorufin in response to H2O2 production. Monoamine oxidase activity was determined using recombinant human MAO-A and MAO-B (M7316-1VL & M7441-1VL, Sigma-Aldrich, St. Louis, MO, USA) and a commercially available assay kit (#V1401, MAO-Glo, Promega, Madison, WI, USA), which utilizes the MAO-catalyzed oxidation of a luciferin derivative coupled with esterase activity to produce luminescence. Fluorescent and luminescent readout was obtained using a SpectraMax M5 plate reader (Molecular Devices) equipped with SOFTmax PRO 7.0.3 software. […] Values were reported as mean % inhibition ± SD of triplicate assay wells normalized to background activity and compared to the vehicle control.

recombinant human MAO-B = biological target: T4, recombinant human MAO-B (Homo sapiens, UniProt P27338); assay: MAO-Glo assay, MAO-B; format: biochemical; conditions: for inhibition at 20 µM: read-out: % Inhibition at 20 μM ± SD, MAO-B
T4 construct: purchased Sigma-Aldrich M7441-1VL
T4 sequence (P27338 1-520): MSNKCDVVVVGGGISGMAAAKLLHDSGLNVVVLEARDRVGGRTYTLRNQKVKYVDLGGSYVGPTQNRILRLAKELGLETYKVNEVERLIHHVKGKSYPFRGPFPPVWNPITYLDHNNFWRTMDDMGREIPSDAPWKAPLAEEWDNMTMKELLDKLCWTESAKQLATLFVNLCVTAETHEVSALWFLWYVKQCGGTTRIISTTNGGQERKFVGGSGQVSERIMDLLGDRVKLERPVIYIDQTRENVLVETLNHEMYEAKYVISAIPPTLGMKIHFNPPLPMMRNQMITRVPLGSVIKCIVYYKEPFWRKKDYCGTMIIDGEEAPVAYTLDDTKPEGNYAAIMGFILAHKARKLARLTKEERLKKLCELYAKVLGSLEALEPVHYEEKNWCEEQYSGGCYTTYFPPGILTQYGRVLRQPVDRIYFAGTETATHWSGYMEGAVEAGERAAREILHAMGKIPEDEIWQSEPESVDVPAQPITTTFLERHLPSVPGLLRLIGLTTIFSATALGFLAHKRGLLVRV
Description: as §1

SMOX [3] = biological target: T1, SMOX; assay: Mechanism of inhibition and enzyme kinetics (Lineweaver–Burk, global fit); format: biochemical
Description: The mechanism of enzyme inhibition was determined using the HRP-luminol coupled enzyme assay described above. Reaction velocity (max RLU/sec over 10 min) was measured across multiple substrate and inhibitor concentrations, and individual triplicate values were plotted using a Lineweaver–Burk transformation (double-reciprocal) in GraphPad Prism 9.3 software (Graph-Pad, San Diego, CA, USA).

[4] = Cytotoxicity analysis, MTS assay; format: cell-based; conditions: human, SH-SY5Y neuroblastoma cells, MTS
Description: (§2) SH-SY5Y neuroblastoma cells purchased from ATCC (Manassas, VA, USA) were cultured in Dulbecco’s modified Eagle medium (DMEM) without phenol red and supplemented with 10% heat inactivated human AB serum, 4 mM L-glutamine, and 1% penicillin/streptomycin. As the oxidation of spermine by various polyamine oxidases has been documented in cell culture containing ruminant serum, such as in fetal bovine serum (FBS) and horse serum, human AB serum was used to prevent assay interference. The cells were maintained in 5% CO2 humidified atmosphere at 37 °C. Cell media was replaced every 2 days and the cells were discarded after a maximum of 15 passages.
(§3) The SH-SY5Y neuroblastoma cells were plated in 96-well plates at a density of 30,000 cells/well and allowed to reach 80% confluence, followed by treatment with varying concentrations of inhibitor ranging from 0 to 10 mM for 12 h. Cell viability was assessed by standard MTS assay, in which MTS reagent was added to each well at a concentration of 0.33 mg/mL and incubated at 37 °C for 3 h. Viability was monitored and confirmed by a visual inspection of the cells. Absorbance was read at 490 nm and the absorbance values were normalized to background wells containing varying concentrations of inhibitor, cell media, and MTS reagent. Colorimetric readout was obtained using a SpectraMax M5 plate reader (Molecular Devices) equipped with SOFTmax PRO 7.0.3 software.

[5] = system: SH-SY5Y neuroblastoma cells; assay: Cytotoxicity analysis, MTS assay; format: cell-based; conditions: doses below 1 mM
Description: as §2, §3

T1 sequence (Q9NWM0 whole entry): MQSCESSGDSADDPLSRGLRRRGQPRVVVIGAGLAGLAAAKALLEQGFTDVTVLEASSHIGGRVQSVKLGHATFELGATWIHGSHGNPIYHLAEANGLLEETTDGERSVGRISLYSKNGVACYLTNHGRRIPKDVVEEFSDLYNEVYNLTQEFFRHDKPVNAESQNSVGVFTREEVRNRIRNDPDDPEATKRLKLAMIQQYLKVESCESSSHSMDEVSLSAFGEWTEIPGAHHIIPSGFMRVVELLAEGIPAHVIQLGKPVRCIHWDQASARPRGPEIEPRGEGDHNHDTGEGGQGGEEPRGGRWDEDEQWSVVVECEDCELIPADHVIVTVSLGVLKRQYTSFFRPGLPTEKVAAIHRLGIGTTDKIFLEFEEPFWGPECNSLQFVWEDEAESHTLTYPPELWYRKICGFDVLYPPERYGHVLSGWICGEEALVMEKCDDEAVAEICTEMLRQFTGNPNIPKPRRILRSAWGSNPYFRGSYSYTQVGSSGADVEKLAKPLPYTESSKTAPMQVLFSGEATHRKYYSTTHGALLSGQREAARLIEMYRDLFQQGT

Row | Compound | Mechanism of inhibition of SMOX (SMOX [1]) | inhibition at 20 µM (SMOX [2]) [%] | IC50 (SMOX [2]) [µM] | inhibition at 20 µM (LSD1) [%] | inhibition at 20 µM (recombinant human MAO-A) [%] | inhibition at 20 µM (recombinant human MAO-B) [%] | other results
1 | N=C(N)NCCCCCCCCNCCCCCCCCNC(=N)N [guazatine] | competitive inhibitors |  |  |  |  |  | 
2 | [H]/N=C(\N/C(=N/[H])NCCCCCCNC(=N)NC(=N)Nc1ccc(Cl)cc1)Nc1ccc(Cl)cc1 [chlorhexidine] | competitive inhibitors |  |  |  |  |  | Ki (SMOX [1]): 0.55 to 3.8 µM
3 | N=C(N)NCCCCNCC(O)c1cc(O)cc(O)c1 (stereo not drawn) [Compound 3] |  | 96.7 ± 0.2 | 6.02 | 41.6 ± 24.4 | -13.7 ± 4.6 | -16.9 ± 12.3 | 
4 | COc1ccccc1CNCCCCCCNCCCCCCCCNCCCCCCNCc1ccccc1OC [methoctramine] |  |  |  |  |  |  | Ki (SMOX [1]): 1.2 µM
5 | N=C(N)NCCCNCC(O)c1ccc(O)c(O)c1 (stereo not drawn) [Compound 5] |  | 96.3 ± 0.1 | 0.47 | 46.2 ± 25.7 | 7.3 ± 0.7 | 4.5 ± 9.5 | 
6 | N=C(N)NCCCNCC(O)c1cc(O)ccc1O (stereo not drawn) [Compound 7] |  | 99.9 ± 0.1 | 0.23 | > 73 | 45 | 29 | Mechanism of inhibition (SMOX [3]; Lineweaver–Burk analysis): competitive; Ki (SMOX [3]; global fit for competitive inhibition, inhibitor 0, 0.1, 1 µM): 0.46 µM; % Inhibition at 20 μM ± SD, MAO-A (recombinant human MAO-A): 45.1 ± 7.7%; % Inhibition at 20 μM ± SD, MAO-B (recombinant human MAO-B): 29.1 ± 2.1%; CC50 at 12 h ([4]; 12 h, read-out: LC50): 130 µM
7 | C=C=CCNCCCCNCC=C=C [MDL-72527, N^1,N^4-bis(2,3-butadienyl)-1,4-butanediamine] | irreversible inhibitor | 10.2 ± 0.9 |  |  |  |  | IC50 (SMOX [1]): 89 to 100 µM; Ki (SMOX [1]): 63 µM
8 | N=C(N)NCCCNCC(O)c1cc(O)cc(O)c1 (stereo not drawn) [Compound 2] |  | 93.6 ± 1 | 8.3 | -18.7 ± 9.8 | -5.5 ± 4.2 | 3.5 ± 1.3 | 
9 | CC(C)=CCNC(=N)NCCCCN [N-prenylagmatine] | competitive inhibitors |  |  |  |  |  | 
10 | N[C@@H]1C[C@H]1c1ccccc1 (racemic) [TCP, Tranylcypromine, reference compound] |  |  |  |  |  |  | % Inhibition at 20 μM ± SD, MAO-A (recombinant human MAO-A): 92.6 ± 0.2%
11 | N=C(N)NCCNCC(O)c1ccc(O)c(O)c1 (stereo not drawn) [Compound 4] |  | 95.7 ± 0.3 | 0.23 | 31.9 ± 12.6 | 15.5 ± 0.5 | 12.6 ± 1.6 | CC50 at 12 h ([4]; 12 h post treatment, read-out: LC50 (dose corresponding to 50% viability)): 3600 µM; Toxicity after 12-h exposure [5]: did not produce significant toxicity
